The values that follow come from patent US5610038A, “Thiangazole, its preparation, compositions and use thereof” (Ciba-Geigy Corporation, priority 1990, dated 1997).

Values after ≈ are worked out from the molar mass of the structure shown.

The MIC is the lowest concentration that inhibits growth of the organism. The low end stands for inhibition by little substance, the high end for a need for much substance.

Test [1] concerns adult liver flukes. As to conditions: ruminants, doses tolerated by the host animal; cited from earlier work.
In test [2] the test system is benzimidazole-resistant nematodes. The following applies: ruminants, doses tolerated by the host animal; cited from earlier work.
Test [3] has as its system sub-mitochondrial particles of deer heart. In words: NADH oxidation in sub-mitochondrial particles. The format is biochemical.
In test [4] the test system is Heliothis virescens. Put plainly: F.7. Ovicidal/larvicidal action against Heliothis virescens. It counts as in vivo. The following applies: 400 ppm, egg deposits on cotton, 8 days. Here is the method: F.7. Ovicidal/larvicidal action against Heliothis virescens
Egg deposits of Heliothis virescens on cotton are sprayed with an aqueous emulsion comprising 400 ppm of test compound. 8 days later, the percentage of eggs which have hatched and the survival rate of the caterpillars are evaluated in comparison with untreated controls (% reduction in the population).

Test [5] deals with nematodes such as Haemonchus contortus and Trichostrongylus colubriformis. In words: F.1. Trial with sheep infested with nematodes. It counts as in vivo. The following applies: single dose. As for the experimental part: F.1. Trial with sheep infested with nematodes such as Haemonchus contortus and Trichostrongylus colubriformis
Thiangazole is administered in the form of a suspension using a stomach probe or by intraruminal injection to sheep that have previously been artificially infested with nematodes, such as Haemonchus contortus and Trichostrongylus colubriformis. 1 to 3 animals are used for each dose per trial. Each sheep is treated only once with a single dose.
(§1) A first evaluation is made by comparing the number of worm eggs excreted in the faeces of the sheep before and after treatment.
Seven to ten days after treatment the sheep are sacrificed and dissected. The evaluation is carded out by counting the worms remaining in the intestine after the treatment. Sheep simultaneously and similarly infested but untreated are used as a control or comparison.

Test [6] deals with Plutella xylostella caterpillars. Put plainly: F.11. Action against Plutella xylostella caterpillars. The format is in vivo. As to conditions: cabbage plants, third-stage caterpillars, 3 days. Here is the method: F. 11. Action against Plutella xylostella caterpillars
Young cabbage plants are sprayed with an aqueous emulsion comprising 400 ppm of the test compound. After the spray coating has dried, the cabbage plants are populated with 10 Plutella xylostella caterpillars in the third stage and placed in a plastics container. Evaluation is made 3 days later. The percentage reduction in the population or the percentage reduction in feeding damage (% activity) is determined by comparing the number of dead caterpillars and the feeding damage on the treated plants with that on untreated plants. […] The activity is over 80%.

Test [7] deals with Heliothis virescens caterpillars. Put plainly: F.10. Action against Heliothis virescens caterpillars. It counts as in vivo. As to conditions: 400 ppm, soybean plants, first-stage caterpillars, 6 days. Here is the method: F. 10. Action against Heliothis virescens caterpillars
Young soybean plants are sprayed with an aqueous emulsion comprising 400 ppm of the test compound. After the spray coating has dried, the soybean plants are populated with 10 Heliothis virescens caterpillars in the first stage and placed in a plastics container. Evaluation is made 6 days later. The percentage reduction in the population or the percentage reduction in feeding damage(% activity) is determined by comparing the number of dead caterpillars and the feeding damage on the treated plants with that on untreated plants.

Test [8] deals with Ustilago maydis. In words: MIC, agar diffusion test / series dilution test. It counts as cell-based. As to conditions: Mycosarcoma maydis. Here is the method: (§2) The antibiotic activity is determined by means of an agar diffusion test with reference to the inhibiting areola diameter, or from the culture density in a series dilution test.
For test [9], the system named is Aphis craccivora. In words: F.8. Action against Aphis craccivora. The format is in vivo. As to conditions: pea seedlings, 3 and 6 days, read-out: activity (percentage reduction in the population). Here is the method:
F.8. Action against Aphis craccivora
Pea seedlings are infested with Aphis craccivora and then sprayed with a spray mixture comprising 400 ppm of the test compound, and incubated at 20° C. Evaluation is made 3 and 6 days later. The percentage reduction in the population (% activity) is determined by comparing the number of dead aphids on the treated plants with that on untreated plants.

The test system of test [10] is Lucille sericata. Put plainly: F.4. Action against Lucille sericata. The following applies: 10-0.01 ppm, eggs/larvae, 30° C., four days. The format is in vivo. Here is the method: F.4. Action against Lucille sericata
Freshly deposited eggs of the blow fly Lucille sericata are introduced in small portions (30-50 eggs) into test tubes in which 4 ml of nutrient medium have previously been mixed with 1 ml of test solution in the intermediate dilution required for the final concentration. After inoculation of the culture medium the test tubes are closed with a cotton wool plug and incubated in an incubator at 30° C. for four days. By this time, larvae approximately 1 cm long (stage 3) have developed in the medium that, for comparison, has not been treated. If a compound is active, the larvae are at this time either dead or moribund and clearly retarded. The test is carried out simultaneously at concentrations of from 10-0.01 ppm. The activity is measured at the lowest fully active concentration (LC 100). The test includes both compounds that are effective by contact and those that are effective as an ingested poison. Repellence is also taken into account, since the larvae migrate from the medium and starve.

Test [11] relates to Dermanyssus gallinae. Put plainly: F.3. Action against Dermanyssus gallinae. It counts as in vivo. The following applies: 72 h, after 3 days, read-out: activity (mortality of the mites). As for the experimental part: F.3. Action against Dermanyssus gallinae
2 to 3 ml of a solution comprising 100 ppm of test compound, and approximately 200 mites at various stages of development, are placed in a glass container that is open at the top. The container is then closed with a cotton wool plug, shaken for 10 minutes until the mites are completely wetted, and then inverted for a short time so that the remaining test solution can be absorbed by the cotton wool. After 3 days, the mortality of the mites is determined as a percentage by counting the number of dead individuals.

For test [12], the system named is Tetranychus urticae. Put plainly: F.9 Action against Tetranychus urticae. It counts as in vivo. The following applies: 144 h, bean plants, 6 days at 25° C., read-out: activity (percentage reduction in the population). Here is the method:
F.9 Action against Tetranychus urticae
Young bean plants are populated with a mixed population of Tetranychus urticae and sprayed one day later with an aqueous emulsion comprising 400 ppm of the test compound. The plants are then incubated for 6 days at 25° C. and then evaluated. The percentage reduction in the population (% activity) is determined by comparing the number of dead eggs, larvae and adults on the treated plants with that on untreated plants.

Test [13] deals with cestodes such as Moniezia benedeni. Put plainly: F.2. Trial with sheep infested with cestodes. As to conditions: dose of less than 20 mg/kg body weight, single dose. It counts as in vivo. Here is the method:
F.2. Trial with sheep infested wtih cestodes such as Moniezia benedeni
The active ingredient is administered in the form of a suspension using a stomach probe or by intraruminal injection to sheep that have previously been artificially infested with cestodes, such as Moniezia benedeni. 1 to 3 animals are used for each dose per trial. Each sheep is treated only once with a single dose. Seven to ten days after treatment the sheep are sacrificed and dissected. The evaluation is carded out by counting the worms remaining in the intestine after the treatment. Sheep simultaneously and similarly infested but untreated are used as a control or comparison. In this test thiangazole effects an approximately 90% reduction in cestode infestation at a dose of less than 20 mg/kg body weight.

Test [14] concerns Lucilia cuprina. In words: F.5. Action against Lucilia cuprina. It counts as in vivo. As to conditions: test solution comprising 16 ppm, evaluation after 96 hours. Here is the method: F.5. Action against Lucilia cuprina Freshly deposited eggs of the blow fly species Lucilia cuprina are introduced in small portions (30-50 eggs) into test tubes in which 4 ml of nutrient medium have previously been mixed with 1 ml of test solution comprising 16 ppm of the test compound. After inoculation of the culture medium the test tubes are closed with a cotton wool plug and incubated in an incubator at 30° C. for four days. By this time, larvae approximately 1 cm long (stage 3) have developed in the untreated medium. If a compound is active the larvae are at this time either dead or clearly retarded. Evaluation is effected after 96 hours.

In test [15] the test system is Botrytis cinerea. In words: Antibiotic activity, agar diffusion test / series dilution test. It counts as cell-based. Here is the method: as §2
In test [16] the test system is Mucor hiemalis. Described as above. The format is cell-based. As for the experimental part:
as §2

Test [17] deals with Rhizopus arrhizus. The test is described as above. It counts as cell-based. Here is the method: as §2
The subject of test [18] is Gibberella fujikuroi. The test is described as above. It counts as cell-based. As for the experimental part:
as §2

Test [19] concerns Pythium debaryanum. Described as above. It counts as cell-based. As for the experimental part: as §2
Test [20] concerns Fasciola hepatica. In words: F.6. Trial with sheep infested with Fasciola hepatica. It counts as in vivo. As to conditions: doses of less than 50 mg of active ingredient/kg of body weight, single dose. Here is the method:
F.6. Trial with sheep infested with Fasciola hepatica
The active ingredient is administered in the form of a suspension using a stomach probe or by intraruminal injection to sheep that have previously been artificially infested with Fasciola hepatica. 3 animals am used for each dose per trial. Each animal is treated only once with a single dose.
as §1
Three to four weeks after treatment the sheep are sacrificed and dissected. The evaluation is carried out by counting the liver flukes remaining in the gall-bladder ducts after treatment. Sheep simultaneously and similarly infested but untreated are used as a control or comparison. The difference in the number of liver flukes counted in the two groups gives the degree of effectiveness of the test compound.

As to `CCCSc1ccc2nc(NC(=O)OC)[nH]c2c1` [Albendazole], the anthelmintic activity entry in test [1] and in test [2] was “totally inadequate” each time.

Take `CNC(=O)c1nc(C2(C)CSC(C3(C)CSC(C4(C)CSC(C=Cc5ccccc5)=N4)=N3)=N2)oc1C` (stereo not shown) [Thiangazole, thiangazole]: the “inhibition of NADH oxidation” value in test [3] was “inhibits NADH oxidation”. Also, in test [4], the “ovicidal/larvicidal activity (% reduction in the population)” value is “good activity (The good pesticidal activity of the compounds of formulae I and Ia according to the invention corresponds to a mortality of at least 50-60% of the mentioned pests)”. The “reduction of nematode infestation” value in test [5] (20 mg of active ingredient per kg of body weight) was “virtually complete reduction”. The “reduction in nematode infestation” value in [5] (stomach probe or intraruminal injection) is “sharp reduction in nematode infestation”. Moreover, the “activity (reduction in the population or in feeding damage)” value in [6] (400 ppm) is “good activity (The good pesticidal activity of the compounds of formulae I and Ia according to the invention corresponds to a mortality of at least 50-60% of the mentioned pests)”; in test [7], “very good activity”. In addition, the activity at 400 ppm in test [6] (Plutella xylostella, 72 h, read-out: % activity (reduction in the population or in feeding damage)) was more than 80%. The minimum inhibitory concentration (MIC) in test [8] turned out to be 3.2 µg/mL (≈ 5.93 µM). In addition, the mortality at 400 ppm in test [9] and in test [12] was not below 50% each time. For the same molecule, the “activity at lowest fully active concentration (LC 100)” value in test [10] was “full activity even at low concentrations”. For the same molecule, the mortality at 100 ppm in [11] is not below 50%. The “reduction in cestode infestation” value in test [13] is on record as “approximately 90%”. Also, the activity against larvae result in test [14] is “very good activity”. Further, the “growth inhibition of fungus” value in [15], in test [16], in test [17], in test [18] and in [19] was “inhibits the growth” in each case. Besides, the “activity against Fasciola hepatica (liver flukes remaining)” value in test [20] is “good activity”.
